One data set can be described thus: physchem. The note with it: oil or lipid, thermodynamic from solid.
Data set [1] can be described thus: Solubility in oil (sesame oil, benzyl benzoate), visual observation. To be noted: oil or lipid, thermodynamic from solid.

One may read the solubility as how much of the substance goes into solution per volume. A lower solubility goes with little dissolved substance. Consider `O=C(Cc1ccccc1)OCN1C(=O)CCc2ccc(OCCCCN3CCN(c4cccc5sccc45)CC3)cc21` [Example 25, phenylacetic acid 7-[4-(4-benzo[b]thiophen-4-ylpiperazin-1-yl)butoxy]-2-oxo-3,4-dihydro-2H-quinolin-1-ylmethyl ester], for which the solubility in “physchem” was above 100 mg/mL.
Same read-out and setting: then `O=C(Cc1ccccc1)OCn1c(=O)ccc2ccc(OCCCCN3CCN(c4cccc5sccc45)CC3)cc21` [Example 26, phenylacetic acid 7-[4-(4-benzo[b]thiophen-4-ylpiperazin-1-yl)butoxy]-2-oxo-2H-quinolin-1-ylmethyl ester], with above 100 mg/mL.
For `CCCCCCCCCOC(=O)OCn1c(=O)ccc2ccc(OCCCCN3CCN(c4cccc5sccc45)CC3)cc21` [Example 177, carbonic acid 7-[4-(4-benzo[b]thiophen-4-ylpiperazin-1-yl)butoxy]-2-oxo-2H-quinolin-1-ylmethyl ester nonyl ester], the solubility in data set [1] (benzyl benzoate) and in data set [1] (sesame oil) was above 100 mg/mL throughout.
For `CCCCCCCCCCCCCCOC(=O)OCn1c(=O)ccc2ccc(OCCCCN3CCN(c4cccc5sccc45)CC3)cc21` [Example 179, carbonic acid 7-[4-(4-benzo[b]thiophen-4-ylpiperazin-1-yl)butoxy]-2-oxo-2H-quinolin-1-ylmethyl ester tetradecyl ester], the solubility in data set [1] (benzyl benzoate) and in data set [1] (sesame oil) was above 100 mg/mL each time.
For `CCCCCCCCCCCCCCCCOC(=O)OCn1c(=O)ccc2ccc(OCCCCN3CCN(c4cccc5sccc45)CC3)cc21` [Example 180, carbonic acid 7-[4-(4-benzo[b]thiophen-4-ylpiperazin-1-yl)butoxy]-2-oxo-2H-quinolin-1-ylmethyl ester hexadecyl ester], the solubility in data set [1] (benzyl benzoate) and in data set [1] (sesame oil) was above 100 mg/mL in each case.
In data set [1] (benzyl benzoate), `CCCCCCCCCCCC(=O)OCOc1ccc2ccc(OCCCCN3CCN(c4cccc5sccc45)CC3)cc2n1` [Example 371, 7-[4-(4-benzo[b]thiophen-4-yl-piperazin-1-yl)-butoxy]-quinolin-2-yloxymethyl dodecanoate] yielded a solubility above 100 mg/mL.
Consider `O=C(OCOc1ccc2ccc(OCCCCN3CCN(c4cccc5sccc45)CC3)cc2n1)OC1CCCCC1` [Example 372, 7-[4-(4-benzo[b]thiophen-4-yl-piperazin-1-yl)-butoxy]-quinolin-2-yloxymethyl cyclohexyl carbonate], for which the solubility in data set [1] (benzyl benzoate) was above 100 mg/mL.
Consider `CCCCCCOC(=O)OCOc1ccc2ccc(OCCCCN3CCN(c4cccc5sccc45)CC3)cc2n1` [Example 373, 7-[4-(4-benzo[b]thiophen-4-yl-piperazin-1-yl)-butoxy]-quinolin-2-yloxymethylhexyl carbonate], for which the solubility in data set [1] (benzyl benzoate) and in data set [1] (sesame oil) was above 100 mg/mL in each case.
For `CCCCCCCCCCCC(=O)Oc1ccc2ccc(OCCCCN3CCN(c4cccc5sccc45)CC3)cc2n1` [Example 379, 7-[4-(4-benzo[b]thiophen-4-yl-piperazin-1-yl)-butoxy]-quinolin-2-yl dodecanoate], the solubility in data set [1] (benzyl benzoate) and in data set [1] (sesame oil) was above 100 mg/mL each time.
Take `O=C(Oc1ccc2ccc(OCCCCN3CCN(c4cccc5sccc45)CC3)cc2n1)C1CCCCC1` [Example 380, 7-[4-(4-benzo[b]thiophen-4-yl-piperazin-1-yl)-butoxy]-quinolin-2-yl cyclohexanecarboxylate]: the solubility in data set [1] (benzyl benzoate) and in data set [1] (sesame oil) was above 100 mg/mL each time.
With `CCCCCCOC(=O)Oc1ccc2ccc(OCCCCN3CCN(c4cccc5sccc45)CC3)cc2n1` [Example 381, 7-[4-(4-benzo[b]thiophen-4-yl-piperazin-1-yl)-butoxy]-quinolin-2-yl hexyl carbonate], the solubility in data set [1] (benzyl benzoate) and in data set [1] (sesame oil) was above 100 mg/mL throughout.
The molecule `CCN(CC)C(=O)Oc1ccc2ccc(OCCCCN3CCN(c4cccc5sccc45)CC3)cc2n1` [Example 382, 7-[4-(4-benzo[b]thiophen-4-yl-piperazin-1-yl)-butoxy]-quinolin-2-yl diethylcarbamate] gave a solubility in data set [1] (benzyl benzoate) above 100 mg/mL.
For the molecule `CCCCCCCCOC(=O)OCn1c(=O)ccc2ccc(OCCCCN3CCN(c4cccc5sccc45)CC3)cc21` [Example 384, (7-(4-(4-(benzo[b]thiophen-4-yl)piperazin-1-yl)butoxy)-2-oxoquinolin-1(2H)-yl)methyl octyl carbonate], the solubility in data set [1] (benzyl benzoate) and in data set [1] (sesame oil) was above 100 mg/mL in each case.

The values are drawn from patent US9539252B2, “Piperazine-substituted benzothiophene derivatives as antipsychotic agents” (OTSUKA PHARMACEUTICAL CO., LTD., priority 2011, dated 2017).
